Legend:
[1] = Ratio of the IC50s of the two assays (alpha1 adrenoceptor binding assay/GT functional assay) used as an estimate of Therapeutic Index
[2] = molecular target: T1, Adrenergic receptor alpha-1 (Rattus norvegicus, UniProt P15823+P23944+P43140); experiment: Tested for the Alpha-1 adrenergic receptor affinity in a standard radioligand binding assay with [3H]- prazosin; assay type: protein assay
T1 sequence (P15823 whole entry): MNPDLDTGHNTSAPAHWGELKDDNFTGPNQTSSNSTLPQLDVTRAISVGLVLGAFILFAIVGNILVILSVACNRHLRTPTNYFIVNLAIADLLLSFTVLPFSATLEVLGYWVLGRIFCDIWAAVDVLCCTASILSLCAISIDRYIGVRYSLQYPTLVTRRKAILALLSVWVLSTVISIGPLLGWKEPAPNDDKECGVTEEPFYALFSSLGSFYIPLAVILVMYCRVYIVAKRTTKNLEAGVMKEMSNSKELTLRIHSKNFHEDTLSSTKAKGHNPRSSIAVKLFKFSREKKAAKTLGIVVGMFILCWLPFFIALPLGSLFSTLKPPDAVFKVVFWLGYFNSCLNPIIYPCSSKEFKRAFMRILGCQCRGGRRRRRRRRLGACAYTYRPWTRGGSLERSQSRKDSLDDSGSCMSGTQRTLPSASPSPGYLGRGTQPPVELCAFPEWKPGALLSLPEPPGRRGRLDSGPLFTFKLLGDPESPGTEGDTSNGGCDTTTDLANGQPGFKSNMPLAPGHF
T1 sequence (P23944 whole entry): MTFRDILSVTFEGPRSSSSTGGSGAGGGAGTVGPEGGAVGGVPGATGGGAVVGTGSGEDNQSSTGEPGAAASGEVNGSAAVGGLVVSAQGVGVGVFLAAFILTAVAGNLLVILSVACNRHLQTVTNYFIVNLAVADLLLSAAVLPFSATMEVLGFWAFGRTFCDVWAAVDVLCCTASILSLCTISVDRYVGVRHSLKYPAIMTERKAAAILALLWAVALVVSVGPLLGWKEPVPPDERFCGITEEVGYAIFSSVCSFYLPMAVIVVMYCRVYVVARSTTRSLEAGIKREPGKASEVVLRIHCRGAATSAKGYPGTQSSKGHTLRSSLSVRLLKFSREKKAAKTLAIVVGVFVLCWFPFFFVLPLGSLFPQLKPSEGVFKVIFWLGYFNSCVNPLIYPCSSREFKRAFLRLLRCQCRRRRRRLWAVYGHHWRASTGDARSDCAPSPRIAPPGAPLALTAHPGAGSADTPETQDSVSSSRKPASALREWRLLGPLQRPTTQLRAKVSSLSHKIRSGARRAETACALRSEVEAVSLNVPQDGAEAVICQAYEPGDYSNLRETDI
T1 sequence (P43140 whole entry): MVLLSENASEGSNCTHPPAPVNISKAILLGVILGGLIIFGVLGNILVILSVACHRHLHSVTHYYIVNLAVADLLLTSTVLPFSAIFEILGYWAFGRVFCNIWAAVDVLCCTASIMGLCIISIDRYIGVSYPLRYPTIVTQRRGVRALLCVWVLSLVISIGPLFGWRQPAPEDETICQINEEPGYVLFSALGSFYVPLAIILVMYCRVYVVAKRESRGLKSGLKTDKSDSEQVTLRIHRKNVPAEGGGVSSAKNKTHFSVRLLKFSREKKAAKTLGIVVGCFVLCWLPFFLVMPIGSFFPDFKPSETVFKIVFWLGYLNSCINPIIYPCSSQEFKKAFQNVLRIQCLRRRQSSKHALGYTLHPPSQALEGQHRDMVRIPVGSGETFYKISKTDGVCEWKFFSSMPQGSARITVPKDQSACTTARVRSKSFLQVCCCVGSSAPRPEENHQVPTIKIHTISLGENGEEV

IC50 [2] [nM] | Compound | TI [1]
183 | O=C1Cc2cc(C(O)CN3CCC(Cc4ccc(F)cc4)CC3)ccc2N1 (stereo not drawn) | 0.3
100 | C[C@@H]([C@H](O)c1ccc(O)cc1)N1CCC(Cc2ccccc2)CC1 [(R,S)-IFENPRODIL] | 0.38

More lines, now with the values behind:

Compound | IC50 [2] [nM] | TI [1]
C[C@@H]([C@@H](O)c1ccc2c(c1)CC(=O)N2)N1CCC(Cc2ccccc2)CC1 | 710 | 6.4
C[C@@H]([C@@H](O)c1ccc2c(c1)CC(=O)N2)N1CCC(c2ccccc2)CC1 | 349 | 8.7
OC(CN1CCC(Cc2ccc(F)cc2)CC1)c1ccc(Cl)cc1 (stereo not drawn) [ELIPRODIL] | 800 | 0.8
C[C@@H]([C@@H](O)c1ccc(O)cc1)N1CCC(Cc2ccccc2)CC1 |  | 15.3
C[C@@H]([C@H](O)c1ccc2c(c1)CC(=O)N2)N1CCC(Cc2ccccc2)CC1 | 100 | 0.4

— ChEMBL document CHEMBL1126814, “Oxindole N-Methyl-D-Aspartate (NMDA) antagonists” (Bioorg Med Chem Lett, 1993)
